The values below come from patent publication US9814720B2, “Compositions and methods of inhibiting IL-17 expression of neutrophils” (priority 2014, dated 2017).

SMILES strings stand for the structures.

Assay [1] concerns human peripheral blood neutrophils. Put plainly: ROS production (CFDA) by human peripheral blood neutrophils incubated with Aspergillus hyphae. As to conditions: IL-6/23-stimulated, inhibitor 20 μM, FIG. 6E. Type of assay: cell-based. The protocol: (§1) Murine and human neutrophils were incubated with p-STAT3 (20 μM Stattic or 20 μM INC424) or RORγt inhibitors (20 μM SR1001) for 2 h. Then the cells were stimulated with […] of rIL-6 and 2 μg/ml of rIL-23 for 3 h, washed, and 2×10^5 bone marrow-derived murine neutrophils or 10^5 human peripheral blood neutrophils, with or without recombinant IL-17A, were added to each well with growing hyphae. RPMI media was used as positive control (unimpaired growth), and PBS was used as a negative control (no growth (data not shown)). After 16 h the wells were washed with PBS and the dsRed fungal mass was quantified in a 96-well fluorometer at 550/600 nm excitation/emission filter (Synergy HT, Biotek).
(§2) In vitro ROS production measured by CFDA was previously described. Briefly, 100 μg/100 μl of A. fumigatus hyphal extract (AspHE) were incubated with 2×10^5 murine or human neutrophils. Neutrophils were treated for 1 h with 1 μM Carboxyfluorescein diacetate (H2CFDA (Sigma)), which will fluoresce following ROS oxidation. Neutrophils were collected and analyzed by flow cytometry. H2CFDA pulsed neutrophils that had not been incubated with AspHE were used to set the ROS histogram gate. The average mean intensity was calculated by Accuri flow software and graphed in Prism.

In assay [2] the test system is A. fumigatus hyphae. As to the kind of experiment: In vitro fungal killing assay (hyphal coincubation) with murine neutrophils. Format: cell-based, Aspergillus fumigatus. The settings on record: IL-6/23-stimulated, inhibitor 20 μM, FIG. 6D.
From the text: (§3) Aspergillus strains—For cornea infections and in vitro fungal killing assays, an RFP expressing strain of A. fumigatus (Af-dsRed) was used. This strain is gpdA promoter driven to constitutively express monomeric dsRed. For subcutaneous “priming” injections, heat-killed, swollen conidia Aspergillus fumigatus strain Af-BP was used. For the Aspergillus hyphal extract used in ROS assay, A. fumigatus strain Af-BP hyphae were pulverized in liquid nitrogen, filtered through a 30 μm pre-separation filter (Miltenyi Biotec) and protein measured by the BCA method (Pierce). Aspergillus hyphal extracts (AspHE) were stored at −20° C. and used at a final concentration of 1 mg/ml.
(§4) A hyphal coincubation assay was used to study the ability of murine and human neutrophils to inhibit A. fumigatus hyphal growth as described. Briefly, 12,500 A. fumigatus dsRed expressing conidia (strain Af-dsRed) per 200 μl Sabouraud dextrose media were added to wells of black-walled 96 well plates with an optically clear bottom (CoStar 3720). After 6 h, the conidia had germinated and the hyphae became adherent to the wells, at which time the medium was removed.
as §1

Assay [3] relates to bone marrow-derived murine neutrophils. Put plainly: ROS production (CFDA) by murine bone marrow neutrophils incubated with Aspergillus hyphae. As to conditions: IL-6/23-stimulated, inhibitor 20 μM, FIG. 6C. Type of assay: cell-based, C57BL/6 mice. As to the method: as §1, §2
Assay [4] relates to A. fumigatus hyphae. Put plainly: In vitro fungal killing assay (hyphal coincubation) with human neutrophils. Format: cell-based, Aspergillus fumigatus. The settings on record: IL-6/23-stimulated, inhibitor 20 μM, FIG. 6F.
From the text: as §3, §4, §1

A further assay concerns RORγt. Put plainly: RORγt nuclear translocation in IL-6/23-stimulated human neutrophils (nuclear extract western blot, confocal). Type of assay: cell-based. As to the method: (§5) Neutrophils were isolated from peripheral blood of healthy donors. Peripheral blood was incubated in 3% Dextran, and neutrophils isolated by Ficoll gradient centrifugation (Fisher Scientific), with neutrophil purity determined by staining with Wright-Giemsa.
Murine or human neutrophils were suspended at a density of 10^6 cells/ml and incubated with […] of recombinant mouse or human IL-6 and 2 μg/ml IL-23 in RPMI, and the cells were maintained for 1-3 h at 37° C. in 5% CO2. Various inhibitors were used for assessing STAT3 activation. For STAT3, neutrophils were treated with either the STAT3-SH2 inhibitor, Stattic (20 μM) obtained from Tocris, or the JAK-1, 2 inhibitor, INC424, (aka Ruxolitinib; 20 μM (Selleck BioChem)). For the determination of RORγt-dependent signaling, SR1001 (20 μM; Sigma) was used, which inhibits RORγt binding to the IL-17 promoter site. All inhibitors were added to neutrophils 2 h prior to recombinant IL-6 and IL-23 stimulation. […]
Neutrophils collected from primed or naïve C57BL/6 mice or unstimulated murine or human neutrophils were incubated with recombinant IL-6 and IL-23 for 60 min. […] Total protein was quantified using the BCA method, denatured with 2× Laemmli buffer (Sigma) and heated to 95° C. for 5 minutes. […] Ten μg of total protein was analyzed on a 12% SDS polyacrylamide gel, and transferred to nitrocellulose. […]
Background: A western blot detects proteins with antibodies after separation by electrophoresis.

For another assay, the system named is IL-17A. As to the kind of experiment: IL-17A protein and Il17a gene expression in IL-6/23-stimulated human neutrophils. Type of assay: cell-based. As to the method: as §5
IL-17A protein production was quantified by 2-site ELISA, according to the manufacturer's directions (R&D Biosciences).
Murine or human neutrophils were suspended at a density of 10^6 cells/ml and incubated with […] of recombinant mouse or human IL-6 and 2 μg/ml IL-23 in RPMI, and the cells were maintained for 1-3 h at 37° C. in 5% CO2. Various inhibitors were used for assessing STAT3 activation. For STAT3, neutrophils were treated with either the STAT3-SH2 inhibitor, Stattic (20 μM) obtained from Tocris, or the JAK-1, 2 inhibitor, INC424, (aka Ruxolitinib; 20 μM (Selleck BioChem)). For the determination of RORγt-dependent signaling, SR1001 (20 μM; Sigma) was used, which inhibits RORγt binding to the IL-17 promoter site. All inhibitors were added to neutrophils 2 h prior to recombinant IL-6 and IL-23 stimulation.
Neutrophil and corneal cell RNA was extracted using the RNeasy mini kit according to the manufacturer's directions (Qiagen, Valencia, Calif.). […]
The SYBR green system (Applied Biosystems, Carlsbad, Calif.) was utilized for quantitative PCR (qPCR) using ABI Biosystems. […]

Take `O=[N+]([O-])c1ccc2c(c1)S(=O)(=O)C=C2` [Stattic]: the ROS production entry in assay [1] (plus rhIL-17A) is recorded as “increased ROS”; in assay [1] (without rhIL-17A) it was “no increase in ROS”; in assay [3] (plus rIL-17A), “ROS production was increased”; in assay [3] (without rIL-17A), “not increased above the level produced by naïve neutrophils”. Moreover, in the assay with A. fumigatus hyphae [2] (plus rIL-17A), the hyphal killing activity result is given as “enhanced hyphal killing activity was detected”. In addition, the “hyphal growth (fluorescent fungal mass)” value in the assay on A. fumigatus hyphae [2] (without rIL-17A) is on record as “did not further impede hyphal growth”. For the same compound, the fluorescent fungal mass entry is on record as “decreased fungal mass” in the assay on A. fumigatus hyphae [4] (plus rhIL-17A) and “no increase in ROS (FIG. 6E) or decrease in fluorescent fungal mass” with A. fumigatus hyphae [4] (without rhIL-17A). Further, in the assay on RORγt, the “RORγt localisation by confocal microscopy” value is recorded as “only detected in the cytoplasm”. For the same compound, the “RORγt in nuclear extracts” value with RORγt (western blot, FIG. 5B) is “no longer detectable”. Besides, the IL-17A protein result in the assay on IL-17A (FIG. 5D) was “ablated”. The Il17a gene expression entry with IL-17A (FIG. 5E) is “ablated”.
